In paper PMC3226499, “Environmental Impact on Vascular Development Predicted by High-Throughput Screening” (Environmental Health Perspectives, 2011):

Legend:
uPAR = assay: BioMAP protein readout: uPAR up- and down-regulation; format: cell-based, human; details: for uPAR up- and down-regulation LEC: lowest effective concentration
Description: (§1) Source data. […] Assays measured direct interactions between chemicals and molecular targets (receptors, enzymes), as well as downstream effects on reporter gene activity or cellular consequences. […] The perturbation scores are a method of aggregating assays into groups and providing a higher-level view of chemical activity across important signaling pathways.
(§2) Identifying pVDCs. Six assay targets emerged as most relevant to embryonic blood vessel formation based on biological plausibility and prevalence in the VasculoDB literature. These targets have been previously identified, based on murine knockout models or significant associations between biomarker data and adverse pregnancy effects, as critical to proper embryonic blood vessel formation or maternal–fetal placental circulation. In order of descending influence (with corresponding references highlighting their importance to vascular development), these were down-regulation of the receptor tyrosine kinase (RTK) VEGFR2 ([Drake et al. 2007]); inhibition of the enzymatic activity of TIE2, an angiogenic RTK ([Patan 1998]); down-regulation of the proangiogenic chemokine CCL2 ([Keeley et al. 2008]); perturbation of the plasminogen-activating system (PAS) controlling extracellular matrix breakdown via up- or down-regulation of plasminogen activator inhibitor type 1 (PAI-1/SERPINE1) ([Behzadian et al. 2003]); up-regulation of the proinflammatory antiangiogenic chemokine CXCL10 ([Romagnani et al. 2001]); and perturbation of the PAS via up- or down-regulation of urokinase-type plasminogen activator receptor (uPAR/PLAUR) ([D’Alessio and Blasi 2009]).
(§3) As predicted, thalidomide and 5HPP-33 were active across most of the pVDC signature assay targets. […] 5HPP-33 also had effects on uPAR in the endothelial cell system at 10 µM. […] Both compounds, however, fell above the mean VBS cutoff and would be classified as pVDCs based on in vitro activity for vascular targets identified by the ToxCast data and chemicals. […] Thus, our findings with reference compounds known to be antiangiogenic support the contention that VBS is an effective metric for vascular disruption.

[1] = system: human umbilical vein endothelial cell; parameters: method as in Noguchi et al. 2005; details: ref Noguchi et al. 2005; cited from earlier work
PAI-1 = assay: BioMAP protein readout: PAI-1 up- and down-regulation; format: cell-based, human; details: for PAI-1 up- and down-regulation LEC: lowest effective concentration
Description: as §1, §2, §3

VEGFR2 = assay: BioMAP protein readout: VEGFR2 down-regulation; format: cell-based, human; details: lowest effective concentration
Description: as §1
(§4) Identifying pVDCs. Six assay targets emerged as most relevant to embryonic blood vessel formation based on biological plausibility and prevalence in the VasculoDB literature. These targets have been previously identified, based on murine knockout models or significant associations between biomarker data and adverse pregnancy effects, as critical to proper embryonic blood vessel formation or maternal–fetal placental circulation. […]

CCL2 = assay: BioMAP protein readout: CCL2 down-regulation; format: cell-based, human
Description: as §1, §2, §3

CXCL10 = assay: BioMAP protein readout: CXCL10 up-regulation; format: cell-based, human
Description: as §1, §4

TIE2 = TIE2 (Homo sapiens, UniProt Q02763); assay: TIE2 cell-free biochemical assay
Sequence of TIE2 (Q02763 23-1124, species assumed): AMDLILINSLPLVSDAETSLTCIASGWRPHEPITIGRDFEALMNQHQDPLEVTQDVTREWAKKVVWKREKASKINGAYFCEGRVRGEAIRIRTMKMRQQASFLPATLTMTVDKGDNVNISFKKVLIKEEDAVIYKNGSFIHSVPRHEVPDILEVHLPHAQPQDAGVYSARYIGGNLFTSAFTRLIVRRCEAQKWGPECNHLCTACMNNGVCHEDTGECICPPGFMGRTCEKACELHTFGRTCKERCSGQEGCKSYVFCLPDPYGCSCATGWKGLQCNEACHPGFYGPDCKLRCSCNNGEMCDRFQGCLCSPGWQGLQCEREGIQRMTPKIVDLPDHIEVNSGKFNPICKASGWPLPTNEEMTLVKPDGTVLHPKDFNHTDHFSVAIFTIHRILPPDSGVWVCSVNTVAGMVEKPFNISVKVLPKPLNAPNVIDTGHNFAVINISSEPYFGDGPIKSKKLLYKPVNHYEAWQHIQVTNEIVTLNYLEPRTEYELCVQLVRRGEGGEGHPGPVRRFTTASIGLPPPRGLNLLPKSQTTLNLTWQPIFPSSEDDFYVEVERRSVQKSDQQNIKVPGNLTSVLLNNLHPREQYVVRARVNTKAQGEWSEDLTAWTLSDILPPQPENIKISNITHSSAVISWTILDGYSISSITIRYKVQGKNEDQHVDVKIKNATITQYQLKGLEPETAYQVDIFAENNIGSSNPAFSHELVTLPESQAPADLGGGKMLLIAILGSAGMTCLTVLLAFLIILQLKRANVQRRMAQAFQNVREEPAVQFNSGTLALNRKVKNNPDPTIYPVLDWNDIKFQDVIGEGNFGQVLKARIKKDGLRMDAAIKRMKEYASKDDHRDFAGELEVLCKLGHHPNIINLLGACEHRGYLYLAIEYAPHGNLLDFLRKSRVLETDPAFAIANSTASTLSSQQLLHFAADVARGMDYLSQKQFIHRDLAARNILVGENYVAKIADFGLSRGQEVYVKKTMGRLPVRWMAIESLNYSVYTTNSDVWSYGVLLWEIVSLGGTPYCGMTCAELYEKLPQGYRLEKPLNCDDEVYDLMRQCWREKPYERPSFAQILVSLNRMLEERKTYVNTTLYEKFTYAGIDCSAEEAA
Description: The chemical library was run against these assays, as was a repeat of the TIE2 assay from the original data series (Table 2).

[2] = system: six prioritized vascular targets (VEGFR2, TIE2, CCL2, PAI-1, CXCL10, uPAR); assay: Vascular bioactivity score (VBS): weighted sum of activity across 23 ToxCast assays; parameters: species or system human; details: for predicted vascular disruption from VBS rank: among all 311 compounds tested; for VBS: summed activity across 23 assays, 6 assay targets, reference antiangiogenic compounds
[3] = system: placental vascular remodeling; details: rats; correlated with decreased expression of TIE2 mRNA; ref Ishimura et al. 2009; cited from earlier work
[4] = system: VEGF expression and VEGFR2 phosphorylation; parameters: method as in Joussen et al. 2001; Satchi-Fainaro et al. 2005; details: ocular vasculature; ref Joussen et al. 2001; Satchi-Fainaro et al. 2005; cited from earlier work
murine pregnancy = details: administered early or late in murine pregnancy, respectively; ref Rutland et al. 2005; cited from earlier work
[5] = coculture of peripheral blood mononuclear cells and endothelial cells

| Structure (SMILES) | uPAR up-regulation, effective concentration (uPAR; bronchial epithelial cells) [µM] | effects on uPAR, effective concentration (uPAR; endothelial cell system) [µM] | uPAR up- and down-regulation LEC (uPAR) [µM] | inhibition of tube formation [1] | PAI-1 down-regulation LEC (PAI-1; both fibroblasts and bronchial epithelial cells) [µM] | PAI-1 up- and down-regulation LEC (PAI-1) [µM] | VEGFR2 down-regulation LEC (VEGFR2) [µM] | CCL2 down-regulation LEC (CCL2; [5]) [µM] | CCL2 down-regulation LEC (CCL2; lowest effective concentration) [µM] | effect on CXCL10 signal assay (CXCL10) | AC50 (TIE2) [µM] | AC50 in the TIE2 assay (in words) (TIE2) | predicted vascular disruption from VBS rank [2] | VBS [2] | placental vascular remodeling [3] | effect on VEGF expression and VEGFR2 phosphorylation [4] | pregnancy outcome (murine pregnancy) | uPAR up-regulation, effective concentration (uPAR; endothelial cells) [µM] | PAI-1 up-regulation, effective concentration (PAI-1; fibroblasts) [µM] |
| --- | --- | --- | --- | --- | --- | --- | --- | --- | --- | --- | --- | --- | --- | --- | --- | --- | --- | --- | --- |
| CC(C)c1cccc(C(C)C)c1N1C(=O)c2ccc(O)cc2C1=O [5HPP-33, 5-hydroxy-2-(2,6-diisopropylphenyl)-1H-isoindole-1,3-dione] | 1.25 | 10 | 1.25 | ~ 60% | 20 | 20 | 20 | 0.625 | 0.625 | Neither compound affected | > 50 | Neither compound affected the CXCL10 signal assay or produced an AC50 in the TIE2 assay | second highest VBS | 6.61 | – | – | – | – | – |
| Clc1cc2c(cc1Cl)Oc1cc(Cl)c(Cl)cc1O2 [TCDD, 2,3,7,8-tetrachlorodibenzo-p-dioxin] | – | – | – | – | – | – | – | – | – | – | – | – | – | – | suppressed | – | – | – | – |
| CO[C@@H]1[C@H](OC(=O)NC(=O)CCl)CC[C@]2(CO2)[C@H]1[C@@]1(C)O[C@@H]1CC=C(C)C [TNP-470, O-[chloroacetyl-carbamoyl]fumagillol] | – | – | – | – | – | – | – | – | – | – | – | – | – | – | – | significant decrease | spontaneous resorption and intrauterine growth restriction | – | – |
| O=C1CCC(N2C(=O)c3ccccc3C2=O)C(=O)N1 (centres unmarked) [Thalidomide] | – | – | 2.5 | ~ 30% | – | 40 | – | 0.625 | 0.625 | Neither compound affected | > 50 | Neither compound affected the CXCL10 signal assay or produced an AC50 in the TIE2 assay | moderate vascular disruptor | 1.76 | – | – | – | 2.5 | 40 |
